Reference: ChEMBL document CHEMBL1201861, “Genomics of Drug Sensitity in Cancer screening data, Wellcome Trust Sanger Institute”

Experiments:
Test in all cases: cells
TE-12 = format: functional, cell-based, Homo sapiens; conditions: Homo sapiens, TE-12;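 also: growth inhibition of TE-12 cells, read out by a cell viability assay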
Description: SANGER: Inhibition of human TE-12 cell growth in a cell viability assay.

NCI-H1770 = format: functional, cell-based, Homo sapiens; conditions: Homo sapiens, NCI-H1770;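 also: growth inhibition of NCI-H1770 cells determined with a viability readout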
Description: SANGER: Inhibition of human NCI-H1770 cell growth in a cell viability assay.

MOLT-4 = format: functional, cell-based, Homo sapiens; conditions: Homo sapiens, MOLT-4;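 also: growth inhibition of MOLT-4 cells, determined with a cell viability readout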
MC116 = format: functional, cell-based, Homo sapiens; conditions: Homo sapiens, MC116;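 also: growth inhibition of MC116 cells, read out with a cell viability assay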
Description: SANGER: Inhibition of human MC116 cell growth in a cell viability assay.

ES5 = format: functional, cell-based, Homo sapiens; conditions: Homo sapiens, ES5;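 also: growth inhibition of human ES5 cells, read out by a cell viability assay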
Description: SANGER: Inhibition of human ES5 cell growth in a cell viability assay.

LS-123 = format: functional, cell-based, Homo sapiens; conditions: Homo sapiens, LS-123
Description: SANGER: Inhibition of human LS-123 cell growth in a cell viability assay.

EKVX = format: functional, cell-based, Homo sapiens; conditions: Homo sapiens, EKVX;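 also: growth inhibition of human EKVX cells, read out with a cell viability assay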
Description: SANGER: Inhibition of human EKVX cell growth in a cell viability assay.

HCC1187 = format: functional, cell-based, Homo sapiens; conditions: Homo sapiens, HCC1187;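 also: growth inhibition of HCC1187 cells, read out with a cell viability assay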
COLO-800 = format: functional, cell-based, Homo sapiens; conditions: Homo sapiens, COLO-800;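 also: growth inhibition of COLO-800 cells, read out with a cell viability assay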
Description: SANGER: Inhibition of human COLO-800 cell growth in a cell viability assay.

EM-2 = format: functional, cell-based, Homo sapiens; conditions: Homo sapiens, EM-2;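 also: growth inhibition of EM-2 cells, read out with a cell viability assay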
Description: SANGER: Inhibition of human EM-2 cell growth in a cell viability assay.

LS-513 = format: functional, cell-based, Homo sapiens; conditions: Homo sapiens, LS-513
Description: SANGER: Inhibition of human LS-513 cell growth in a cell viability assay.

TE-5 = format: functional, cell-based, Homo sapiens; conditions: Homo sapiens, TE-5;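 also: inhibition of cell growth, read out by a cell viability assay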
Description: SANGER: Inhibition of human TE-5 cell growth in a cell viability assay.

RXF 393 = format: functional, cell-based, Homo sapiens; conditions: Homo sapiens, RXF 393;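 also: growth inhibition of human RXF 393 cells, read out with a cell viability assay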
Description: SANGER: Inhibition of human RXF393 cell growth in a cell viability assay.

NCI-H2126 = format: functional, cell-based, Homo sapiens; conditions: Homo sapiens, NCI-H2126;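 also: growth inhibition of the cancer cell line, determined with a cell viability readout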
NB10 = format: functional, cell-based, Homo sapiens; conditions: Homo sapiens, NB10;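 also: growth inhibition of NB10 cells, read out by a cell viability assay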
Description: SANGER: Inhibition of human NB10 cell growth in a cell viability assay.

A3-KAW = format: functional, cell-based, Homo sapiens; conditions: Homo sapiens, A3-KAW;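 also: growth inhibition of human A3-KAW cells, read out with a cell viability assay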
NCI-H23 = format: functional, cell-based, Homo sapiens; conditions: Homo sapiens, NCI-H23;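 also: cell viability assay measuring growth inhibition of NCI-H23 cells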
Description: SANGER: Inhibition of human NCI-H23 cell growth in a cell viability assay.

SNU-5 = format: functional, cell-based, Homo sapiens; conditions: Homo sapiens, SNU-5;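 also: cell viability readout used to measure growth inhibition in human NCI-SNU-5 cells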
Description: SANGER: Inhibition of human NCI-SNU-5 cell growth in a cell viability assay.

DOHH-2 = format: functional, cell-based, Homo sapiens; conditions: Homo sapiens, DOHH-2;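 also: growth inhibition of human DOHH-2 cells, read out with a cell viability assay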
Description: SANGER: Inhibition of human DOHH-2 cell growth in a cell viability assay.

ES4 = format: functional, cell-based, Homo sapiens; conditions: Homo sapiens, ES4;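 also: growth inhibition of human ES4 cells, read out by a cell viability assay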
LB831-BLC = format: functional, cell-based, Homo sapiens; conditions: Homo sapiens, LB831-BLC;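 also: growth inhibition of LB831-BLC cells, read out with a cell viability assay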
Description: SANGER: Inhibition of human LB831-BLC cell growth in a cell viability assay.

SF-539 = format: functional, cell-based, Homo sapiens; conditions: Homo sapiens, SF-539;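 also: Read-out is a cell viability assay, with IC50 reflecting inhibition of cell growth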
Description: SANGER: Inhibition of human SF539 cell growth in a cell viability assay.

NCI-H747 = format: functional, cell-based, Homo sapiens; conditions: Homo sapiens, NCI-H747;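 also: growth inhibition of human NCI-H747 cells, read out by a cell viability assay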
Description: SANGER: Inhibition of human NCI-H747 cell growth in a cell viability assay.

D-247MG = format: functional, cell-based; conditions: Homo sapiens
Description: SANGER: Inhibition of human D-247MG cell growth in a cell viability assay.

HDLM-2 = format: functional, cell-based, Homo sapiens; conditions: Homo sapiens, HDLM-2;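 also: cell viability assay measuring suppression of HDLM-2 proliferation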
Description: SANGER: Inhibition of human HDLM-2 cell growth in a cell viability assay.

TE-11 = format: functional, cell-based; conditions: Homo sapiens;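 also: growth inhibition of human TE-11 cells, read out by a cell viability assay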
Description: SANGER: Inhibition of human TE-11 cell growth in a cell viability assay.

Lu-65 = format: functional, cell-based, Homo sapiens; conditions: Homo sapiens, Lu-65;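 also: growth inhibition of Lu-65 cancer cells, read out by a cell viability assay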
Description: SANGER: Inhibition of human LU-65 cell growth in a cell viability assay.

ES6 = format: functional, cell-based; conditions: Homo sapiens;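 also: growth inhibition of human ES6 cells, read out with a cell viability assay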
Description: SANGER: Inhibition of human ES6 cell growth in a cell viability assay.

JVM-2 = format: functional, cell-based, Homo sapiens; conditions: Homo sapiens, JVM-2;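 also: growth inhibition of JVM-2 cells determined by a cell viability assay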
Description: SANGER: Inhibition of human JVM-2 cell growth in a cell viability assay.

P30-OHK = format: functional, cell-based, Homo sapiens; conditions: Homo sapiens, P30-OHK;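 also: growth inhibition of the P30-OHK cell line, read out with a cell viability assay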
Description: SANGER: Inhibition of human P30-OHK cell growth in a cell viability assay.

KARPAS-299 = format: functional, cell-based, Homo sapiens; conditions: Homo sapiens, KARPAS-299
Description: SANGER: Inhibition of human KARPAS-299 cell growth in a cell viability assay.

SK-LMS-1 = format: functional, cell-based, Homo sapiens; conditions: Homo sapiens, SK-LMS-1;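 also: growth inhibition of human SK-LMS-1 cells, read out with a cell viability assay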
ACN = format: functional, cell-based, Homo sapiens; conditions: Homo sapiens, ACN;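 also: growth inhibition of the human ACN cell line, read out via cell viability testing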
Description: SANGER: Inhibition of human ACN cell growth in a cell viability assay.

DU-4475 = format: functional, cell-based, Homo sapiens; conditions: Homo sapiens, DU-4475
Description: SANGER: Inhibition of human DU-4475 cell growth in a cell viability assay.

COLO-824 = format: functional, cell-based, Homo sapiens; conditions: Homo sapiens, COLO-824
Description: SANGER: Inhibition of human COLO-824 cell growth in a cell viability assay.

HT-144 = format: functional, cell-based, Homo sapiens; conditions: Homo sapiens, HT-144
Description: SANGER: Inhibition of human HT-144 cell growth in a cell viability assay.

SK-PN-DW = format: functional, cell-based, Homo sapiens; conditions: Homo sapiens, SK-PN-DW;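 also: growth inhibition measured with a viability assay on these cells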
Description: SANGER: Inhibition of human SK-PN-DW cell growth in a cell viability assay.

Calu-6 = format: functional, cell-based, Homo sapiens; conditions: Homo sapiens, Calu-6;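 also: growth of human Calu-6 cells, read out by a cell viability assay, IC50 marking inhibition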
Description: SANGER: Inhibition of human Calu-6 cell growth in a cell viability assay.

BB30-HNC = format: functional, cell-based, Homo sapiens; conditions: Homo sapiens, BB30-HNC;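 also: growth inhibition of the cultured cell line, read out by a cell viability assay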
Description: SANGER: Inhibition of human BB30-HNC cell growth in a cell viability assay.

TE-10 = format: functional, cell-based, Homo sapiens; conditions: Homo sapiens, TE-10;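 also: growth inhibition of TE-10 cells, measured by a cell viability assay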
Description: SANGER: Inhibition of human TE-10 cell growth in a cell viability assay.

HCC2157 = format: functional, cell-based, Homo sapiens; conditions: Homo sapiens, HCC2157;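 also: growth inhibition of the cancer cell line, read out as cell viability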
Description: SANGER: Inhibition of human HCC2157 cell growth in a cell viability assay.

SNB-75 = format: functional, cell-based, Homo sapiens; conditions: Homo sapiens, SNB-75;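 also: cell viability assay measuring growth inhibition of human SNB-75 cells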
Description: SANGER: Inhibition of human SNB75 cell growth in a cell viability assay.

CW-2 = format: functional, cell-based, Homo sapiens; conditions: Homo sapiens, CW-2;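 also: growth inhibition of CW-2 cells, read out by a cell viability assay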
Description: SANGER: Inhibition of human CW-2 cell growth in a cell viability assay.

MZ1-PC = format: functional, cell-based, Homo sapiens; conditions: Homo sapiens, MZ1-PC;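 also: cell viability assay measuring growth inhibition of human MZ1-PC cells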
NCI-H82 = format: functional, cell-based, Homo sapiens; conditions: Homo sapiens, NCI-H82;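 also: growth inhibition of NCI-H82 cells, measured with a cell viability readout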
Description: SANGER: Inhibition of human NCI-H82 cell growth in a cell viability assay.

TE-8 = format: functional, cell-based, Homo sapiens; conditions: Homo sapiens, TE-8;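 also: growth inhibition of TE-8 cells, measured with a cell viability readout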
Description: SANGER: Inhibition of human TE-8 cell growth in a cell viability assay.

QIMR-WIL = format: functional, cell-based, Homo sapiens; conditions: Homo sapiens, QIMR-WIL;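 also: growth inhibition of QIMR-WIL cells, read out with a cell viability assay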
Description: SANGER: Inhibition of human QIMR-WIL cell growth in a cell viability assay.

GCIY = format: functional, cell-based, Homo sapiens; conditions: Homo sapiens, GCIY;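 also: growth inhibition of the human GCIY cell line, read out by a cell viability assay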
Description: SANGER: Inhibition of human GCIY cell growth in a cell viability assay.

SCH = format: functional, cell-based, Homo sapiens; conditions: Homo sapiens, SCH;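 also: growth inhibition of human SCH cells, read out in a cell viability assay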
Description: SANGER: Inhibition of human SCH cell growth in a cell viability assay.

NTERA-2-cl-D1 = format: functional, cell-based, Homo sapiens; conditions: Homo sapiens, NTERA-2-cl-D1;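 also: inhibition of cell growth, measured with a cell viability assay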
Description: SANGER: Inhibition of human NTERA-S-cl-D1 cell growth in a cell viability assay.

Cc1ccc(NC(=O)c2ccc(CN3CCN(C)CC3)cc2)cc1Nc1nccc(-c2cccnc2)n1 [IMATINIB]
IC50 (TE-12): > 2000 nM | IC50 (NCI-H1770): > 2000 nM | IC50 (MOLT-4): > 2000 nM | IC50 (MC116): > 2000 nM | IC50 (ES5): > 2000 nM | IC50 (LS-123): > 2000 nM | IC50 (EKVX): > 2000 nM | IC50 (HCC1187): > 2000 nM | IC50 (COLO-800): > 2000 nM | IC50 (EM-2): 88.8 nM | IC50 (LS-513): > 2000 nM | IC50 (TE-5): > 2000 nM | IC50 (RXF 393): > 2000 nM | IC50 (NCI-H2126): > 2000 nM | IC50 (NB10): > 2000 nM | IC50 (A3-KAW): > 2000 nM | IC50 (NCI-H23): > 2000 nM | IC50 (SNU-5): > 2000 nM | IC50 (DOHH-2): > 2000 nM | IC50 (ES4): > 2000 nM | IC50 (LB831-BLC): > 2000 nM | IC50 (SF-539): > 2000 nM | IC50 (NCI-H747): > 2000 nM | IC50 (D-247MG): > 2000 nM | IC50 (HDLM-2): > 2000 nM | IC50 (TE-11): > 2000 nM | IC50 (Lu-65): > 2000 nM | IC50 (ES6): > 2000 nM | IC50 (JVM-2): > 2000 nM | IC50 (P30-OHK): > 2000 nM | IC50 (KARPAS-299): > 2000 nM | IC50 (SK-LMS-1): > 2000 nM | IC50 (ACN): > 2000 nM | IC50 (DU-4475): > 2000 nM | IC50 (COLO-824): > 2000 nM | IC50 (HT-144): > 2000 nM | IC50 (SK-PN-DW): > 2000 nM | IC50 (Calu-6): > 2000 nM | IC50 (BB30-HNC): > 2000 nM | IC50 (TE-10): > 2000 nM | IC50 (HCC2157): > 2000 nM | IC50 (SNB-75): > 2000 nM | IC50 (CW-2): > 2000 nM | IC50 (MZ1-PC): > 2000 nM | IC50 (NCI-H82): > 2000 nM | IC50 (TE-8): > 2000 nM | IC50 (QIMR-WIL): > 2000 nM | IC50 (GCIY): > 2000 nM

CC1=C(/C=C/C(C)=C/C=C/C(C)=C/C(=O)O)C(C)(C)CCC1 [TRETINOIN]
IC50 (TE-12): > 10000 nM | IC50 (NCI-H1770): > 10000 nM | IC50 (MOLT-4): > 10000 nM | IC50 (MC116): > 10000 nM | IC50 (ES5): > 10000 nM | IC50 (LS-123): > 10000 nM | IC50 (EKVX): > 10000 nM | IC50 (HCC1187): > 10000 nM | IC50 (COLO-800): > 10000 nM | IC50 (EM-2): 5330 nM | IC50 (LS-513): > 10000 nM | IC50 (SCH): > 10000 nM | IC50 (TE-5): > 10000 nM | IC50 (RXF 393): > 10000 nM | IC50 (NCI-H2126): > 10000 nM | IC50 (NTERA-2-cl-D1): > 10000 nM | IC50 (NB10): > 10000 nM | IC50 (A3-KAW): 7600 nM | IC50 (NCI-H23): > 10000 nM | IC50 (SNU-5): > 10000 nM | IC50 (DOHH-2): > 10000 nM | IC50 (ES4): > 10000 nM | IC50 (LB831-BLC): > 10000 nM | IC50 (SF-539): > 10000 nM | IC50 (NCI-H747): > 10000 nM | IC50 (D-247MG): > 10000 nM | IC50 (HDLM-2): > 10000 nM | IC50 (TE-11): > 10000 nM | IC50 (Lu-65): > 10000 nM | IC50 (ES6): > 10000 nM | IC50 (JVM-2): 1170 nM | IC50 (P30-OHK): > 10000 nM | IC50 (KARPAS-299): > 10000 nM | IC50 (SK-LMS-1): > 10000 nM | IC50 (ACN): 1650 nM | IC50 (DU-4475): > 10000 nM | IC50 (COLO-824): > 10000 nM | IC50 (HT-144): > 10000 nM | IC50 (SK-PN-DW): > 10000 nM | IC50 (Calu-6): > 10000 nM | IC50 (BB30-HNC): > 10000 nM | IC50 (TE-10): > 10000 nM | IC50 (SNB-75): > 10000 nM | IC50 (CW-2): > 10000 nM | IC50 (MZ1-PC): > 10000 nM | IC50 (NCI-H82): > 10000 nM | IC50 (TE-8): > 10000 nM | IC50 (QIMR-WIL): 6620 nM | IC50 (GCIY): > 10000 nM

NC(=O)c1ccc(N(C(N)=O)c2c(F)cccc2F)nc1-c1ccc(F)cc1F [VX-702]
IC50 (TE-12): > 2000 nM | IC50 (NCI-H1770): > 2000 nM | IC50 (MOLT-4): > 2000 nM | IC50 (MC116): > 2000 nM | IC50 (ES5): > 2000 nM | IC50 (LS-123): > 2000 nM | IC50 (EKVX): > 2000 nM | IC50 (HCC1187): > 2000 nM | IC50 (COLO-800): > 2000 nM | IC50 (EM-2): > 2000 nM | IC50 (LS-513): > 2000 nM | IC50 (SCH): > 2000 nM | IC50 (TE-5): > 2000 nM | IC50 (RXF 393): > 2000 nM | IC50 (NCI-H2126): > 2000 nM | IC50 (NTERA-2-cl-D1): > 2000 nM | IC50 (NB10): > 2000 nM | IC50 (A3-KAW): > 2000 nM | IC50 (NCI-H23): > 2000 nM | IC50 (SNU-5): > 2000 nM | IC50 (DOHH-2): > 2000 nM | IC50 (ES4): > 2000 nM | IC50 (LB831-BLC): > 2000 nM | IC50 (SF-539): > 2000 nM | IC50 (NCI-H747): > 2000 nM | IC50 (D-247MG): > 2000 nM | IC50 (HDLM-2): > 2000 nM | IC50 (TE-11): > 2000 nM | IC50 (Lu-65): > 2000 nM | IC50 (ES6): > 2000 nM | IC50 (JVM-2): 83 nM | IC50 (P30-OHK): > 2000 nM | IC50 (KARPAS-299): > 2000 nM | IC50 (SK-LMS-1): > 2000 nM | IC50 (ACN): > 2000 nM | IC50 (DU-4475): > 2000 nM | IC50 (COLO-824): > 2000 nM | IC50 (HT-144): > 2000 nM | IC50 (SK-PN-DW): > 2000 nM | IC50 (Calu-6): > 2000 nM | IC50 (BB30-HNC): > 2000 nM | IC50 (TE-10): > 2000 nM | IC50 (SNB-75): > 2000 nM | IC50 (CW-2): > 2000 nM | IC50 (MZ1-PC): > 2000 nM | IC50 (NCI-H82): > 2000 nM | IC50 (TE-8): > 2000 nM | IC50 (QIMR-WIL): > 2000 nM | IC50 (GCIY): > 2000 nM
